In US4500526A, “Cephalosporin derivatives” (Bristol-Myers Company, priority 1983, dated 1985):
Converted amounts (≈) assume the structure as drawn.

What was measured:
[1] = Mouse blood levels after single intramuscular injection; assay type: in vivo, mice; details: in vivo, im, 20 mg/kg
In short: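 Mice received a single intramuscular dose of 20 mg/kg in 0.1M phosphate buffer, pH 7. Orbital sinus blood was sampled over time and bioassayed on Nutrient Agar (pH 6.6) with E. coli Ess-22-31; t1/2 and AUC were derived from the blood levels.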

S. aureus Smith = experiment: Median protective dose in infected mice; assay type: in vivo; details: Staphylococcus aureus, im, immediately after intraperitoneal challenge, read-out: PD50
Protocol: (§1) The median protective dose (PD50) of some of the preferred compounds against various microorganisms was determined in mice by intramuscular administration of the test compound immediately after an intraperitoneal bacterial challenge.

S. aureus BX-1633 = experiment: Median protective dose in infected mice; assay type: in vivo; details: Staphylococcus aureus, BX1633, im, immediately after intraperitoneal challenge, read-out: PD50
Protocol: as §1

E. coli Juhl = experiment: Median protective dose in infected mice; assay type: in vivo; details: Escherichia coli, im, immediately after intraperitoneal challenge, read-out: PD50
Protocol: as §1

P. aeruginosa A9843 = experiment: Median protective dose in infected mice; assay type: in vivo; details: Pseudomonas aeruginosa, im, immediately after intraperitoneal challenge, read-out: PD50
Protocol: as §1

[2] = tested on: Penicillinresistant S. aureus (5 strains); experiment: MIC, two-fold serial agar dilution, group (G+)-Ib; assay type: cell-based; details: Staphylococcus aureus; (G+)-Ib, 5 strains, Mueller-Hinton agar; read-out: Geometric Mean of MIC
In short: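 Two-fold serial agar dilution in Mueller-Hinton agar against penicillin-resistant S. aureus (5 strains). Test compound weights adjusted for purity.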

[3] = tested on: H. influenzae (7) (ampicillin sensitive); experiment: In vitro activity against fastidious bacteria, two-fold serial agar dilution; assay type: cell-based; details: Haemophilus influenzae, GC agar, 7 strains, read-out: Geometric Mean of MIC
Protocol: The in vitro activity of some of the preferred compounds against 30 strains of fastidious bacteria was determined by the two-fold serial agar dilution method in Gonococcus agar (GC agar), and the results are shown in Table 3.

S. pyogenes A20201 = experiment: Median protective dose in infected mice; assay type: in vivo; details: Streptococcus pyogenes, im, immediately after intraperitoneal challenge, read-out: PD50
Protocol: as §1

Row | SMILES | AUC [1] [ng·h/mL] | concentration at 10 min [1] [ng/mL] | concentration at 20 min [1] [ng/mL] | concentration at 0.5 h [1] [ng/mL] | concentration at 40 min [1] [ng/mL] | concentration at 50 min [1] [ng/mL] | concentration at 1 h [1] [ng/mL] | concentration at 1.5 h [1] [ng/mL] | concentration at 2 h [1] [ng/mL] | half-life [1] [min] | ED50 (S. aureus Smith) [mg/kg] | ED50 (S. aureus BX-1633) [mg/kg] | ED50 (E. coli Juhl) [mg/kg] | ED50 (P. aeruginosa A9843) [mg/kg] | MIC [2] [µg/mL] | MIC [3] [µg/mL] | ED50 (S. pyogenes A20201) [mg/kg]
1 | CO/N=C(\C(=O)NC1C(=O)N2C(C(=O)[O-])=C(C[n+]3ccc4scnc4c3)CS[C@H]12)c1csc(N)n1 (some centres unmarked) [Ia, 7-[(Z)-2-(2-Aminothiazol-4-yl)-2-methoxyiminoacetamido]-3-{(5-thiazolo[4,5-c]pyridinio)methyl}-3-cephem-4-carboxylate] | 15000 | 20000 | 15000 | 11000 | 8600 | 6900 | 6500 | 3100 | 2100 | 35 | 0.45 | 0.75 | 0.012 | 7.2 | 0.96 (≈ 1.81 µM) | – | –
2 | CC(C)(O/N=C(\C(=O)NC1C(=O)N2C(C(=O)[O-])=C(C[n+]3ccc4scnc4c3)CS[C@H]12)c1csc(N)n1)C(=O)O (some centres unmarked) [Id, 7-[(Z)-2-(2-Aminothiazol-4-yl)-2-(2-carboxyprop-2-oxyimino)-acetamido]-3-{(5-thiazolo[4,5-c]pyridinio)methyl}-3-cephem-4-carboxylate] | 9500 | 16000 | 14000 | 11000 | 6100 | 3900 | 2500 | 720 | < 200 | 16 | 7.2 | 21 | 0.082 | 4.3 | 8.8 (≈ 14.6 µM) | 0.1 (≈ 0.166 µM) | 0.23
